Experimental data taken from patent US7432260B2, “Pyrimidine compounds” (Cyclacel Limted, priority 2002, dated 2008).
pIC50: −log10 of the molar value.

Key:
CDK9/cyclin T1 = CDK9/cyclin T1 (Homo sapiens, UniProt P50750); assay: CDK9 assay; format: biochemical; settings: Table 2; read-out: Kinase Inhibition IC50 CDK9 cyclin T1
Method: (§1) Kinase assays. […] This was achieved by measurement of incorporation of radioactive phosphate from ATP into appropriate polypeptide substrates. Recombinant protein kinases and kinase complexes were produced or obtained commercially. Assays were performed using 96-well plates and appropriate assay buffers (typically 25 mM β-glycerophosphate, 20 mM MOPS, 5 mM EGTA, 1 mM DTT, 1 mM […], pH 7.4), into which were added 2-4 μg of active enzyme with appropriate substrates. The reactions were initiated by addition of Mg/ATP mix (15 mM MgCl2+100 μM ATP with 30-50 kBq per well of [γ-^32P]-ATP) and mixtures incubated as required at 30° C. Reactions were stopped on ice, followed by filtration through p81 filterplates or GF/C filterplates (Whatman Polyfiltronics, Kent, UK). After washing 3 times with 75 mM aq orthophosphoric acid, plates were dried, scintillant added and incorporated radioactivity measured in a scintillation counter (TopCount, Packard Instruments, Pangbourne, Berks, UK). Compounds for kinase assay were made-up as 10 mM stocks in DMSO and diluted into 10% DMSO inrassay buffer.
(§2) CDK 7 and 9 assays. CTD peptide substrate (biotinyl-Ahx-(Tyr-Ser-Pro-Thr-Ser-Pro-Ser)4-NH2; 1-2 mg/mL) and recombinant human CDK7/cyclin H, CDK9/cyclin T1, or CDK9/cyclin K (0.5-2 μg) were incubated for 45 min at 30° C. in the presence of varying amounts of test compound in 20 mM MOPS pH 7.2, 25 mM β-glycerophosphate, 5 mM EGTA, 1 mM DTT, 1 mM sodium vanadate, 15 mM MgCl2, and 100 μM ATP (containing a trace amount of ^32PγATP) in a total volume of 25 μL in a 96-well microtiter plate. The reaction was stopped by placing the plate on ice for 2 min. Avidin (50 μg) was added to each well, and the plate was incubated at room temp for 30 min. The samples were transferred to a 96-well P81 filter plate, and washed (4×200 μL per well) with 75 mM phosphoric acid. Microscint 40 scintillation liquid (50 μL) was added to each well, and the amount of ^32P incorporation for each sample was measured using a Packard Topcount microplate scintillation counter.

Saos-2 = assay: 72-h MTT cytotoxicity assay Saos-2; format: cell-based; settings: Homo sapiens, SAOS-2, 72 h, Table 4
Method: (§3) MTT cytotoxicity assay. […] Standard 72-h MTT (thiazolyl blue; 3-[4,5-dimethylthiazol-2-yl]-2,5-diphenyltetrazolium bromide) assays were performed (Haselsberger, K.; Peterson, D. C.; Thomas, D. G.; Darling, J. L. Anti Cancer Drugs 1996, 7, 331-8; Loveland, B. E.; Johns, T. G.; Mackay, I. R.; Vaillant, F.; Wang, Z. X.; Hertzog, P. J. Biochemistry International 1992, 27, 501-10). In short: cells were seeded into 96-well plates according to doubling time and incubated overnight at 37° C. Test compounds were made up in DMSO and a 1/3 dilution series prepared in 100 μL cell media, added to cells (in triplicates) and incubated for 72 ho at 37° C. MTT was made up as a stock of 5 mg/mL in cell media and filter-sterilised. Media was removed from cells followed by a wash with 200 μL PBS.
(§4) MTT solution was then added at 20 μL per well and incubated in the dark at 37° C. for 4 h. MTT solution was removed and cells again washed with 200 μL PBS. MTT dye was solubilised with 200 μL per well of DMSO with agitation.

CDK1/cyclin B = CDK1/cyclin B (Homo sapiens, UniProt P06493); assay: Kinase assay CDK1/cyclin B; format: biochemical; settings: Table 2; read-out: Kinase Inhibition IC50 CDK1 cyclin B
Method: as §1

GSK-3β = GSK-3β (Homo sapiens, UniProt P49841); assay: Kinase assay GSK-3β; format: biochemical; settings: Table 2; read-out: Kinase Inhibition IC50 GSK-3β
Method: as §1

CDK4/cyclin D1 = CDK4/cyclin D1 (Homo sapiens, UniProt P11802); assay: Kinase assay CDK4/cyclin D1; format: biochemical; settings: Table 2; read-out: Kinase Inhibition IC50 CDK4 cyclin D1
Method: as §1

A549 = assay: 72-h MTT cytotoxicity assay A549; format: cell-based; settings: Homo sapiens, A549, 72 h, Table 4
Method: as §3, §4

PLK-1 = PLK-1 (Homo sapiens, UniProt P53350); assay: Kinase assay PLK-1; format: biochemical; settings: Table 2; read-out: Kinase Inhibition IC50 PLK-1
Method: as §1

HT29 = assay: 72-h MTT cytotoxicity assay HT29; format: cell-based; settings: Homo sapiens, HT-29, 72 h, Table 4
Method: as §3, §4

CDK7/cyclin H = CDK7/cyclin H (Homo sapiens, UniProt P50613); assay: CDK7 assay; format: biochemical; settings: Table 2; read-out: Kinase Inhibition IC50 CDK7 cyclin H
Method: as §1, §2

CDK2/cyclin A = CDK2/cyclin A (Homo sapiens, UniProt P24941); assay: Kinase assay CDK2/cyclin A; format: biochemical; settings: Table 2; read-out: Kinase Inhibition IC50 CDK2 cyclin A
Method: as §1

CDK2/cyclin E = CDK2/cyclin E (Homo sapiens, UniProt P24941); assay: Kinase assay CDK2/cyclin E; format: biochemical; settings: Table 2; read-out: Kinase Inhibition IC50 CDK2 cyclin E
Method: as §1

CDK4/cyclin D1, sequence (P11802 whole entry): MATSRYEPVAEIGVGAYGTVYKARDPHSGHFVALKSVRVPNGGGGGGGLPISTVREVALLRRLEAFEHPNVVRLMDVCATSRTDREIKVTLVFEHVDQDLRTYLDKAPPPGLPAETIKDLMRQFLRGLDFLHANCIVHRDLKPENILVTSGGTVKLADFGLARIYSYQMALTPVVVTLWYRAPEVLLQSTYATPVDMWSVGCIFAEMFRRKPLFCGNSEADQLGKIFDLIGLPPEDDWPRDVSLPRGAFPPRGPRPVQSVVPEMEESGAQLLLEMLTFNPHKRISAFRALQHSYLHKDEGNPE
CDK4/cyclin D1, sequence (P24385 whole entry partner): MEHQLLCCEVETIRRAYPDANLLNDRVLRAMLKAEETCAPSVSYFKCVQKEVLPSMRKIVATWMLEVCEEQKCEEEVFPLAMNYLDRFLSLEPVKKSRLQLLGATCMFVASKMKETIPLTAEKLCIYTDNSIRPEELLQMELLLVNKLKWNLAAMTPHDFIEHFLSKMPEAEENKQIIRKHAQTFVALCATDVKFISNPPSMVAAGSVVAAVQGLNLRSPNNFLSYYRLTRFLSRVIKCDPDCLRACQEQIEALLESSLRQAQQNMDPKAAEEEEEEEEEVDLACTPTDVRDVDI
PLK-1, sequence (P53350 whole entry): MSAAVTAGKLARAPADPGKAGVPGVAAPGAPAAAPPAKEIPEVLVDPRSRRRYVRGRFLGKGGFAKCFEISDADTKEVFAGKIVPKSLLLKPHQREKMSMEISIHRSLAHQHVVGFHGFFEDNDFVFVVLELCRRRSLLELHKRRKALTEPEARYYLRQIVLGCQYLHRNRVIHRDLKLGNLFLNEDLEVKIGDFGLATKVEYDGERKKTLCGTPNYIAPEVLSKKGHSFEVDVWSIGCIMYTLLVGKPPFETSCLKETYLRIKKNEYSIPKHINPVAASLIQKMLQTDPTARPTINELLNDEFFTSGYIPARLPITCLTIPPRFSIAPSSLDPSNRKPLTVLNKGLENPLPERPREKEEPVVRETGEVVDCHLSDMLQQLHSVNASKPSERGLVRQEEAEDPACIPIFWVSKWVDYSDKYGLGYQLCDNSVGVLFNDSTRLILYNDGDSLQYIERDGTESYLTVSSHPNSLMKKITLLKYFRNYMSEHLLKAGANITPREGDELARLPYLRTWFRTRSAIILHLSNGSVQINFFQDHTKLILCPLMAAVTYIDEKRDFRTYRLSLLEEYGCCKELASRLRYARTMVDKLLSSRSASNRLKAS
CDK7/cyclin H, sequence (P50613 whole entry): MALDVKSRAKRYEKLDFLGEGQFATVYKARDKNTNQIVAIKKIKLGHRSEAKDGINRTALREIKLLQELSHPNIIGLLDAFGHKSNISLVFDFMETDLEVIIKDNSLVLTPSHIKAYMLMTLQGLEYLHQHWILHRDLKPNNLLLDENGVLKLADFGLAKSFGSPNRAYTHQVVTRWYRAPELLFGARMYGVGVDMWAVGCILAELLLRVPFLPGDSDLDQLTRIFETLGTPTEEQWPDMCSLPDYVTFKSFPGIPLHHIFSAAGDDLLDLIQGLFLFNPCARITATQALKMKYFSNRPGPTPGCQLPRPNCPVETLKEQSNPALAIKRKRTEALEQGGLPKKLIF
CDK9/cyclin T1, sequence (P50750 whole entry): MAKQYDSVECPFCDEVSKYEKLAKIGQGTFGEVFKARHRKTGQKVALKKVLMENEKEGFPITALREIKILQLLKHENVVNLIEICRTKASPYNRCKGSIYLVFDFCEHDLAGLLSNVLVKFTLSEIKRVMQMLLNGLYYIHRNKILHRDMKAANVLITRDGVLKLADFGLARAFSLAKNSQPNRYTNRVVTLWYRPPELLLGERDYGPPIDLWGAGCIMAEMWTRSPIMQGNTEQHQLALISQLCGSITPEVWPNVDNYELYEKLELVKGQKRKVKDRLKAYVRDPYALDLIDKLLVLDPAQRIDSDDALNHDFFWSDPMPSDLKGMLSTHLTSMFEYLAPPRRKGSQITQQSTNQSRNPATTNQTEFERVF
CDK9/cyclin T1, sequence (O60563 whole entry partner): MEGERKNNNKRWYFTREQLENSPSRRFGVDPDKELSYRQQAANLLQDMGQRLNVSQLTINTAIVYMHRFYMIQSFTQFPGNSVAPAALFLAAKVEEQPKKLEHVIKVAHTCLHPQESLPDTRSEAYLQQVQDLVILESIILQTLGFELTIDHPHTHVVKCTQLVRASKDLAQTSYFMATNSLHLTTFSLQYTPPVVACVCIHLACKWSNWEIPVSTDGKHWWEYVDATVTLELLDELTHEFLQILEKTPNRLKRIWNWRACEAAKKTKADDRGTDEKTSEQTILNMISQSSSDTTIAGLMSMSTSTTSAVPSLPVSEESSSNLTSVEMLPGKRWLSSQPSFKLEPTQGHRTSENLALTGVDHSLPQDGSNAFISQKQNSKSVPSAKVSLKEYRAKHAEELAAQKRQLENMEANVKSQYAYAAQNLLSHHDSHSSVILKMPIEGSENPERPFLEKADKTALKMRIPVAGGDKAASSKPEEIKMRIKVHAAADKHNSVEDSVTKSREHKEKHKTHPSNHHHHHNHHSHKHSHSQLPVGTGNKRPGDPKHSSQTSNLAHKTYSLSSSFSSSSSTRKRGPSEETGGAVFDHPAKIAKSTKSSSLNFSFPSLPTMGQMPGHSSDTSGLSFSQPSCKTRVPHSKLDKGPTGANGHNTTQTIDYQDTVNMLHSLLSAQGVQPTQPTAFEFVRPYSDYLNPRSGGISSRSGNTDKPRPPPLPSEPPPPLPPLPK
CDK1/cyclin B, sequence (P06493 whole entry): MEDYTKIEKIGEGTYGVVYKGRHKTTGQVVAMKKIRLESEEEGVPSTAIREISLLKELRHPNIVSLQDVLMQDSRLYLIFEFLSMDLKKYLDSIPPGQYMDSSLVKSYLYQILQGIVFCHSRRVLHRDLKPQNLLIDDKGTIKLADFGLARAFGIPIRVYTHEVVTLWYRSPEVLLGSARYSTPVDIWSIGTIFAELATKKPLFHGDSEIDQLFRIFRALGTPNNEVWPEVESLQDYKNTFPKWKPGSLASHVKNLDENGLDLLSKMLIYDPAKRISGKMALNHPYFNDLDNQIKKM
CDK1/cyclin B, sequence (P14635 whole entry partner): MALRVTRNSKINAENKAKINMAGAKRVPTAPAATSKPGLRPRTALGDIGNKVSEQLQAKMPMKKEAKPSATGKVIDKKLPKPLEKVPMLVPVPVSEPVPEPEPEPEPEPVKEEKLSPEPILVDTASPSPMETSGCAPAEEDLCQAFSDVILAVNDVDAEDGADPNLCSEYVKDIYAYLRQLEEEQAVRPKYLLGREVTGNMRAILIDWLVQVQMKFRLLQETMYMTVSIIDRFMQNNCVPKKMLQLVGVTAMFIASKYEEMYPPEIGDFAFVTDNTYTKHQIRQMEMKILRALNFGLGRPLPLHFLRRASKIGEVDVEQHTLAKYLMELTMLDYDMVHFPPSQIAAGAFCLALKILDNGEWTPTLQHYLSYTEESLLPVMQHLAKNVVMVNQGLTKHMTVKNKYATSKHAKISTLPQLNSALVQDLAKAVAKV
GSK-3β, sequence (P49841 whole entry): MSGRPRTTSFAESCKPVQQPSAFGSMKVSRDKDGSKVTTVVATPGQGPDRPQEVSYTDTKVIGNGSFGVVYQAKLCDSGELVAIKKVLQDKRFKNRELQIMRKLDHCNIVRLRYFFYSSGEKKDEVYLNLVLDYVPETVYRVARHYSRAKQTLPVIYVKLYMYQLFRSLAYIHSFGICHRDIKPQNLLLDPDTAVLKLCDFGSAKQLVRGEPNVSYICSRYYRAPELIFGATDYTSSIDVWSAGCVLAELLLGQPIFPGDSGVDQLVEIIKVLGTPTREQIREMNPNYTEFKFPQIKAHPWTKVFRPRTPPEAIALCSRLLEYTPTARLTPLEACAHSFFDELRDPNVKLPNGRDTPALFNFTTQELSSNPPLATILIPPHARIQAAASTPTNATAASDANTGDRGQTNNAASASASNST

Row | SMILES | pIC50 (CDK9/cyclin T1) | pIC50 (CDK1/cyclin B) | pIC50 (GSK-3β) | pIC50 (CDK4/cyclin D1) | pIC50 (PLK-1) | pIC50 (CDK7/cyclin H) | pIC50 (CDK2/cyclin A) | pIC50 (CDK2/cyclin E) | pIC50 (Saos-2) | pIC50 (A549) | pIC50 (HT29)
1 | Cc1nc(C)c(-c2ccnc(Nc3ccc(N4CCOCC4)cc3)n2)s1 [Compound 2, [4-(2,4-Dimethyl-thiazol-5-yl)-pyrimidin-2-yl]-(4-morpholin-4-yl-phenyl)-amine] | 4.64 | 4.12 | < 4.00 | 5.41 | < 4.00 | 4.01 |  |  | 5.32 | 5.46 | 5.48
2 | CC(=O)N1CCN(c2ccc(Nc3nccc(-c4sc(C)nc4C)n3)cc2)CC1 [Compound 5, 1-(4-{4-[4-(2,4-Dimethyl-thiazol-5-yl)-pyrimidin-2-ylamino]-phenyl}-piperazin-1-yl)-ethanone] | 5.21 | 5.25 | 4.68 | 5.77 | 4.46 | 5.25 |  |  | 5.41 | 5.42 | 5.66
3 | Cc1nc(C)c(-c2ccnc(Nc3ccc(N4CCNCC4)cc3)n2)s1 [Compound 6, [4-(2,4-Dimethyl-thiazol-5-yl)-pyrimidin-2-yl]-(4-piperazin-1-yl-phenyl)-amine] | 6.00 | 5.52 | 5.28 | 6.41 | 4.89 | 5.89 | 6.07 | 6.15 | 6.11 | 5.89 | 5.96
4 | Cc1nc(NC(=O)CCl)sc1-c1ccnc(Nc2cccc(Cl)c2)n1 [Compound 25, 2-Chloro-N-{5-[2-(3-chloro-phenylamino)-pyrimidin-4-yl]-4-methyl-thiazol-2-yl}-acetamide] | 6.17 | 5.03 | 7.08 | 6.01 |  | 5.49 | 5.52 | 6.66 | 5.80 | 6.01 | 5.89
5 | Cc1nc(NS(C)(=O)=O)sc1-c1ccnc(Nc2cccc([N+](=O)[O-])c2)n1 [Compound 32, N-{4-Methyl-5-[2-(3-nitro-phenylamino)-pyrimidin-4-yl]-thiazol-2-yl}-methanesulfonamide] | 8.85 |  | 6.68 | 5.96 |  |  |  | 8.30 | 6.80 | 7.00 | 6.77
6 | Cc1nc(C)c(-c2ccnc(Nc3ccc(NC(=O)Cn4ccnc4)cc3)n2)s1 [Compound 54, N-{4-[4-(2,4-Dimethyl-thiazol-5-yl)-pyrimidin-2-ylamino]-phenyl}-2-imidazol-1-yl-acetamide] | 6.96 | 5.89 | 4.72 | 7.49 |  | 5.68 | 4.24 | 7.01 | 5.72 | 5.54 | 5.57
7 | Cc1nc(N2CCOCC2)sc1-c1ccnc(Nc2cccc(O)c2)n1 [Compound 55, 3-[4-(4-Methyl-2-morpholin-4-yl-thiazol-5-yl)-pyrimidin-2-ylamino]-phenol] | 5.68 | 5.62 | 4.17 | 6.00 |  | 5.66 | 4.21 | 7.10 | 5.85 | 5.64 | 5.29
8 | Cc1nc(N2CCOCC2)sc1-c1ccnc(Nc2ccc(N(C)C)cc2)n1 [Compound 57, N,N-Dimethyl-N′-[4-(4-methyl-2-morpholin-4-yl-thiazol-5-yl)-pyrimidin-2-yl]-benzene-1,4-diamine] | 4.92 | 5.11 | 4.13 | 7.15 |  | 6.72 | 4.14 | 6.46 | 5.42 | 5.57 | 6.62

Continued, in another order:

Row | pIC50 (CDK9/cyclin T1) | pIC50 (CDK1/cyclin B) | pIC50 (GSK-3β) | pIC50 (CDK4/cyclin D1) | pIC50 (PLK-1) | pIC50 (CDK7/cyclin H) | pIC50 (CDK2/cyclin A) | pIC50 (CDK2/cyclin E) | SMILES | pIC50 (Saos-2) | pIC50 (A549) | pIC50 (HT29)
9 | 5.82 | 5.60 | 5.17 | 7.38 |  | 5.64 |  |  | CNc1nc(C)c(-c2ccnc(Nc3ccc(N4CCN(C(C)=O)CC4)cc3)n2)s1 [Compound 61, 1-(4-{4-[4-(4-Methyl-2-methylamino-thiazol-5-yl)-pyrimidin-2-ylamino]-phenyl}-piperazin-1-yl)-ethanone] | 6.00 | 6.14 | 6.28
10 | 5.38 | 6.48 | 5.62 |  |  | 5.62 | 8.22 | 6.66 | Cc1nc(N2CCOCC2)sc1-c1ccnc(Nc2cccc([N+](=O)[O-])c2)n1 [Compound 71, [4-(4-Methyl-2-morpholin-4-yl-thiazol-5-yl)-pyrimidin-2-yl]-(3-nitro-phenyl)-amine] | 5.00 | 4.10 | 4.15
11 | 5.39 | 4.21 | 4.32 | 4.60 |  | 5.02 | 4.92 | 6.14 | Cc1nc(C)c(-c2ccnc(Nc3ccc(Cl)c(CO)c3)n2)s1 [Compound 72, {2-Chloro-5-[4-(2,4-dimethyl-thiazol-5-yl)-pyrimidin-2-ylamino]-phenyl}-methanol] | 4.74 | 4.49 | 4.70
12 | 6.26 | 5.77 | 5.28 | 6.64 |  | 5.70 | 5.89 | 6.00 | CNc1nc(C)c(-c2ccnc(Nc3ccc(Cl)c(CO)c3)n2)s1 [Compound 73, {2-Chloro-5-[4-(4-methyl-2-methylamino-thiazo1-5-yl)-pyrimidin-2-ylamino]-phenyl}-methanol] | 5.54 | 5.82 | 5.26
13 | 6.59 | 4.14 | 5.21 | 5.47 |  | 6.00 | 6.00 | 6.82 | CNc1nc(C)c(-c2ccnc(Nc3ccc(OCCOC)c([N+](=O)[O-])c3)n2)s1 [Compound 77, [4-(2-Methoxy-ethoxy)-3-nitro-phenyl]-[4-(4-methyl-2-methylamino-thiazol-5-yl)-pyrimidin-2-yl]-amine] | 6.46 | 6.51 | 6.68
14 | 6.52 | 5.36 | 6.37 | 6.29 |  | 6.44 | 5.96 | 6.08 | Cc1c(-c2ccnc(Nc3ccc(N4CCN(C)CC4)cc3)n2)sc(=O)n1C [Compound 93, 3,4-Dimethyl-5-{2-[4-(4-methyl-piperazin-1-yl)-phenylamino]-pyrimidin-4-yl}-3H-thiazol-2-one] |  |  | 
